Experimental data published in US20160075682A1, “INHIBITORS OF NICOTINAMIDE PHOSPHORIBOSYLTRANSFERASE, COMPOSITIONS, PRODUCTS AND USES THEREOF” (UNIVERSITÀ DEGLI STUDI DEL PIEMONTE ORIENTALE "AMEDEO …, priority 2013, published 2016).

Tests used:
[1] = Microsomal stability with rat liver microsomes; assay type: in vitro ADME, Male Wistar rat; conditions: 50 μM substrate, 1.0 mg/mL protein, 60 minutes at 37° C., pH 7.4
Description: (§1) Male Wistar rat liver microsomes (RLM), (protein concentration: 25 mg/ml determined using the Omura and Sato method, total P450: 0.64 nmol/mg protein) were used throughout this study and prepared using an internal protocol. The cryopreserved pooled human liver microsomes (HLM), (pooled mixed sex, ten individual donors, protein concentration: 20 mg/ml, total P450: 0.36 nmol/mg) were purchased from BD Gentest™ (Woburn, Mass.) and used throughout this study.
(§2) The standard incubation mixture (1 ml final volume), was carried out in a 50 mM TRIS (Tris[hydroxymethyl]aminomethane) buffer (pH 7.4) containing 10 μl of acetonitrile (1% of total volume), and 50 μM substrate compounds. After pre-equilibration of the mixture, an appropriate volume of RLM or HLM suspension was added to give a final protein concentration of 1.0 mg/mL. The mixture was shaken for 60 minutes at 37° C. Control incubations were carried out without microsomes. Each incubation was stopped by addition of 1 ml ice-cold acetonitrile, vortexed and centrifuged at 11,000 r.p.m. for 5 min. The supernatants were analysed by LC-DAD-UV and LC-ESI-MS systems to determine the metabolic stability (% substrate residue) and the structure of metabolites respectively (Table 1).
(§3) A Shimadzu HPLC system (Shimadzu, Kyoto, Japan), consisting of two LC-10AD Vp module pumps, an SLC-10A Vp system controller, an SIL-10AD Vp autosampler, and a DGU-14-A on-line degasser were used for the analysis. Chromatographic separation was performed on a Phenomenex Luna C18(2) 150×4.6 mm (5 μm) (Phenomenex srl, Castel Bolognese, Italy) as a stationary phase protected by a C18 SecurityGuard (Phenomenex srl, Castel Bolognese, Italy). The SPD-M10Avp photodiode array detector was used to detect the analytes. LC-Solution 1.24 software was used to process the chromatograms. Aliquots (20 μL) of supernatants obtained from incubations were injected onto the HPLC system and eluted with a mobile phase (flow rate 1.0 mL/min) consisting of a A: 0.5% formic acid solution, B: acetonitrile/methanol 8:2. A Thermo Finningan LCQ Deca XP plus system equipped with a quaternary pump, a Surveyor AS autosampler, a Surveyor photodiode array detector and a vacuum degasser was used for LC/MS analyses (Thermo Electron Corporation, Waltham, Mass.). All the chromatographic separations were performed on a Phenomenex Luna C18(2)150×2 mm (4 μm) (kept at a 35° C.) as a stationary phase protected by a C18 SecurityGuard (Phenomenex srl, Castel Bolognese, Italy). Aliquots (2.0 μl) of supernatants obtained from incubations were injected onto the system and eluted with a mobile phase (flow rate 0.2 ml/min) consisting of a A: 0.2% formic acid solution, B: acetonitrile/methanol 8:2. The eluate was injected into the electrospray ion source (ESI) and MS and MS^n spectra were acquired and processed using Xcalibur® software. The operating conditions on the ion trap mass spectrometer were as follows: Positive mode, spray voltage, 5.30 kV; source current, 80 μA; capillary temperature, 350° C.; capillary voltage, 21.00 V; tube lens offset, 15.00 V; multipole 1 offset, −5.75 V; multipole 2 offset, −9.00 V; sheath gas flow (N2), 55 Auxiliary Units.

[2] = Microsomal stability with human liver microsomes; assay type: in vitro ADME; conditions: 50 μM substrate, 1.0 mg/mL protein, 60 minutes at 37° C., pH 7.4
Description: as §1, §2, §3

[3] = Metabolites generated from hydrolyses in RLM or HLM incubations (LC-ESI-MS); assay type: in vitro ADME, rat, human; conditions: RLM or HLM incubation, 60 minutes at 37° C.
Description: as §1, §2, §3

SH-SY5Y, HeLa = assay: MTT cell proliferation assay and trypan blue count (cell viability); assay type: cell-based; conditions: cells treated for 48 and 72 hours; read-out: IC50 values (inhibition of cellular proliferation, MTT assay and trypan blue assay)
Description: Cell based assays were used to evaluate the possible cytotoxic effects of some compounds. To measure cytotoxic effects two different methods were used, a MTT cell proliferation assay and trypan blue count.
The Trypan blue assay is used to determine the number of viable cells present in a cell suspension. […] Briefly, 8×10^5 cells (SH-SY5Y, HeLa; obtained from ATCC, LGC standards, Sesto San Giovanni) were seeded in 24-well plates and treated for 48 and 72 hours. After the treatments, cells were stained with trypan blue and counted.
To analyze cell viability was used the colorimetric 3-(4,5-dimethylthiazol-2-yl)-2,5-diphenyltetrazolium bromide (MTT) method. The assay is based on the cleavage of the yellow tetrazolium salt MTT to purple formazan crystals by metabolic active cells. Since reduction of MTT can only occur in metabolically active cells, the level of activity is a measure of the viability of cells and conversely the cytotoxic effects of various treatments. Briefly, 8×10^5 cells (SH-SY5Y, code number CRL-2266; and HeLa, code number CCL-2) were seeded in 24-well plates and treated for 48 and 72 hours. Compounds were dissolved in DMSO and were added to the cells to give a final DMSO concentration no greater than 0.5%. Cells were washed once in Locke buffer and 300 μl of MTT (250 μg/ml in Locke buffer) were added before returning the cells to the incubator for 1 h to allow the formation of the purple formazan crystals. After 1 h, 600 μl of isopropanol/0.1 M HCl were added to each well, and the absorbance was read at 570 nm in a plate reader (Victor3V, PerkinElmer Life Sciences). For some compounds a dose response curve and IC50 for the effects on cell viability and proliferation were calculated. Cell lines used were originally purchased from ATCC (LGC standards. Sesto San Giovanni).
To evaluate the ability of each compound to inhibit cellular proliferation, cells were seeded in 24-well plates and treated for 48 and 72 hours. After the treatments the MTT assay and trypan blue assay were performed.

NAMPT = biological target: T1, NAMPT (Homo sapiens, UniProt P43490); assay: Direct inhibition of NAMPT enzymatic activity (Cyclex NAMPT colorimetric Assay Kit); assay type: biochemical; conditions: as assessed with a cycling assay
T1 construct: endogenous in cells; host or cells: SH-SY5Y and HeLa
Description: Determination of the direct activity of compounds on NAMPT was performed using a commercial kit, Cyclex NAMPT colorimetric Assay Kit.

T1 sequence (P43490 whole entry): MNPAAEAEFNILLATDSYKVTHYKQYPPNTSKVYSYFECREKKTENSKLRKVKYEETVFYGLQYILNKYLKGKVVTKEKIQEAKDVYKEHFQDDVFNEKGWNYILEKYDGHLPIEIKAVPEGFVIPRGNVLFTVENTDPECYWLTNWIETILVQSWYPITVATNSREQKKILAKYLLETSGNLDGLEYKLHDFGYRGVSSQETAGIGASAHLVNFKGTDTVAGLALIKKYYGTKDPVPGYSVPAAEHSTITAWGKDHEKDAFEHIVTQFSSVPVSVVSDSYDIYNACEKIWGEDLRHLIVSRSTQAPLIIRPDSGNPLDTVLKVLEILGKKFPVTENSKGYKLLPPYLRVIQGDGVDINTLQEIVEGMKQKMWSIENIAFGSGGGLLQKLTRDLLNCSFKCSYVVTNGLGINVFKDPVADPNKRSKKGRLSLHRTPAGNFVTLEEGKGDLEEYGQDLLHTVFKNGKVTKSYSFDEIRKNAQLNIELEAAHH

Compound	RLM stability % substrate residue (area peak) [1] [%]	HLM stability % substrate residue (area peak) [2] [%]	Metabolites generated from hydrolyses [3]	IC50 (SH-SY5Y, HeLa) [nM]	inhibition of the enzymatic activity of NAMPT (NAMPT)	melting point [°C]
O=C(NCCc1ccc(Cn2cc(-c3cccnc3)nn2)cc1)Nc1ccccc1-c1ccccc1 [1-([1,1′-biphenyl]2-yl)-3-(4-((4-(pyridin-3-yl)-1H-1,2,3-triazol-1-yl)methyl)phenethyl)urea]	>99	>99	no	< 300	–	–
O=C(NCCCCCCCn1cc(-c2cccnc2)nn1)Nc1ccccc1-c1ccccc1 [1-([1,1′-biphenyl]-2-yl)-3-(7-(4-(pyridin-3-yl)-1H-1,2,3-triazol-1-yl)heptyl)urea]	>95	>98	yes (traces)	< 300	able to inhibit	–
O=C(NCCCCCCCn1cc(-c2cccnc2)nn1)c1ccccc1-c1cccnc1 [2-(pyridin-3-yl)-N-(7-(4-(pyridin-3-yl)-1H-1,2,3-triazol-1-yl)heptyl)benzamide]	>99	>96	no	< 300	able to inhibit	–
c1ccc(-c2ccccc2OCCc2ccc(Cn3cc(-c4cccnc4)nn3)cc2)cc1 [3-(1-(4-(2-([1,1′-biphenyl]-2-yloxy)ethyl)benzyl)-1H-1,2,3-triazol-4-yl)pyridine]	>97	>99	no	< 300	–	–
c1ccc(-c2ccccc2OCCCc2ccc(-n3cc(-c4cccnc4)nn3)cc2)cc1 [3-(1-(4-(3-([1,1′-biphenyl]-2-yloxy)propyl)phenyl)-1H-1,2,3-triazol-4-yl)pyridine]	>92	>98	no	< 300	–	164 to 165
c1ccc(-c2ccccc2-c2cn(CCCCCCCn3cc(-c4cccnc4)nn3)nn2)cc1 [3-(1-(7-(4-([1,1′-byphenyl]-2-yl)-1H-1,2,3-triazol-1-yl)heptyl)-1H-1,2,3-triazol-4-yl)pyridine]	>99	>99	no	< 300	–	–
c1ccc(-c2ccccc2OCCCCCCCCn2cc(-c3cccnc3)nn2)cc1 [3-(1-(8-([1,1′-biphenyl]-2-yloxy)octyl)-1H-1,2,3-triazol-4-yl)pyridine]	–	–	–	< 300	able to inhibit	–
c1cncc(-c2cn(CCCCCCOc3ccccc3-c3cccnc3)nn2)c1 [3-(2-((6-(4-(pyridin-3-yl)-1H-1,2,3-triazol-1-yl)hexyl)oxy)phenyl)pyridine]	>95	>99	no	< 300	able to inhibit	–
O=C(Nc1ccccc1-c1ccccc1)OCCCCCCn1cc(-c2cccnc2)nn1 [6-(4-(pyridin-3-yl)-1H-1,2,3-triazol-1-yl)hexyl[1,1′-biphenyl]-2-ylcarbamate]	–	–	–	< 300	able to inhibit	–

The remaining lines, values ahead:

RLM stability % substrate residue (area peak) [1] [%]	HLM stability % substrate residue (area peak) [2] [%]	Metabolites generated from hydrolyses [3]	IC50 (SH-SY5Y, HeLa) [nM]	inhibition of the enzymatic activity of NAMPT (NAMPT)	melting point [°C]	Compound
–	–	–	< 300	able to inhibit	–	O=C(Nc1ccccc1-c1ccccc1)OCCCCCCCn1cc(-c2cccnc2)nn1 [7-(4-(pyridin-3-yl)-1H-1,2,3-triazol-1-yl)heptyl[1,1′-biphenyl]-2-ylcarbamate]
>99	>98	no	< 300	–	–	O=C(Nc1ccc(CCCn2cc(-c3cccnc3)nn2)cc1)c1ccccc1-c1ccccc1 [N-(4-(3-(4-(pyridin-3-yl)-1H-1,2,3-triazol-1-yl)propyl)phenyl)-[1,1′-biphenyl]-2-carboxamide]
>99	>99	no	< 300	–	–	O=C(NCCc1ccc(Cn2cc(-c3cccnc3)nn2)cc1)c1ccccc1-c1ccccc1 [N-(4-((4-(pyridin-3-yl)-1H-1,2,3-triazol-1-yl)methyl)phenethyl)[1,1′-biphenyl]-2-carboxamide]
–	–	–	< 300	able to inhibit	–	O=C(NCCCCCCn1cc(-c2cccnc2)nn1)c1ccccc1-c1ccccc1 [N-(6-(4-(pyridin-3-yl)-1H-1,2,3-triazol-1-yl)hexyl)-[1,1′-biphenyl]-2-carboxamide]
>99	>99	no	< 300	–	–	O=S(=O)(NCCCCCCCCn1cc(-c2cccnc2)nn1)c1ccccc1-c1ccccc1 [N-(8-(4-(pyridin-3-yl)-1H-1,2,3-triazol-1-yl)octyl) biphenyl-2-sulfonamide]
